From patent US8536148B2, “Disabling autophagy as a treatment for lysosomal storage diseases” (The United States of America, as Represented by the …, priority 2009, dated 2013)
“Also recorded” adds a separate entry of the source.

Experiments:
[1] = test system: autophagy; experiment: Inhibition of autophagy by 3-MA injected into TA muscle (histology, LC3, glycogen content); assay type: in vivo; details: 40 l of 5 mg/ml per TA, two injections six days apart, harvested two to three days after second injection
Method: 3-MA was administered using the highest possible safety dose (40 l of 5 mg/ml per TA) determined from the above-described study. Two injections (six days apart) were given into TA muscle. Two to three days after the second injection, the treated muscles were harvested to examine the histology, the level of autophagy marker LC3, and the glycogen content.

[2] = test system: TA muscle; assay type: in vivo
[3] = intraperitoneal; Sigma MSDS; cited from earlier work
[4] = test system: Pompe disease; details: cited from earlier work
[5] = test system: HSAcre: Atg5F/F: GAA−/− mice; experiment: Effect of ERT on glycogen levels in HSAcre:Atg5F/F:GAA−/− mice (biochemical glycogen measurement, PAS staining); assay type: in vivo, mouse; details: for Glycogen level, Treated: rhGAA 100 mg/kg i.v., three injections every other week; for Excess Glycogen: treated value minus wild type level
Method: (§1) Glycogen concentration in skeletal muscle was evaluated by measuring the amount of glucose released after treatment of tissue extracts with Aspergillus niger amyloglucosidase as described (Kikuchi et al., J. Clin. Invest., 101:827-833, 1998), except that the enzymatic digestion was carried out at 55° C. rather than 37° C. (Kikuchi et al., J. Clin. Invest., 101:827-833, 1998). Tissues were fixed in 3% glutaraldehyde (EM grade, Electron Microscopy sciences, Hatfield, Pa.) in 0.2M Sodium Cacodylate buffer for 4 h at 4° C., washed in 0.1M Sodium Cacodylate buffer, and stored at 4° C. in the same buffer. Samples were then imbedded in paraffin, sectioned, and stained with periodic acid-Schiff (PAS) by standard methods.
(§2) Two and a half month-old GAA−/−, MLCcre: Atg7F/F: GAA−/−, and HSAcre: Atg5F/F: GAA−/− mice received three intravenous injections of recombinant human α-glucosidase (rhGAA; Myozyme®, Genzyme Corporation, Framingham, Mass.) at a dose of 100 mg/kg every other week. To diminish a hypersensitivity reaction, diphenhydramine hydrochloride was injected intraperitoneally at a dose of 5 mg/kg 15 minutes before the second and third injections of rhGAA. The mice were sacrificed 7 days after the last injection. Twelve GAA−/−, 11 HSAcre: Atg5F/F: GAA−/−, and 9 MLCcre: Atg7F/F: GAA−/− were treated with rhGAA.

[6] = test system: GAA−/− mice; experiment: Effect of ERT on ubiquitinated (Ub) proteins in fast muscle of GAA−/− mice (FK2 immunoblot); assay type: in vivo, mouse; details: gastrocnemius total lysates, ERT-treated vs untreated
Method: Whole muscle tissues were homogenized in RIPA buffer (PBS, 1% NP40, 0.5% Sodium deoxycholate, 0.1% SDS) containing a protease inhibitor cocktail tablet (Roche Diagnostics, Mannheim, Germany). Samples were centrifuged for 30 min at 13,000 rpm at 4° C. Alternatively, detergent-soluble and -insoluble fractions from muscle tissues were obtained as previously described (Hara et al. 2006). Briefly, muscle tissues were homogenized in ice-cold 0.25 M sucrose buffer (50 mM Tris-HCl pH 7.4, 1 mM EDTA; ˜350 μl/100 mg tissue) with protease inhibitors. Homogenates were centrifuged at a low speed for […] at 4° C., and the supernatants were lysed with an equal volume of cold sucrose buffer with 1% Triton X-100. Lysates were then centrifuged at 13,000 g for […] at 4° C. to collect fractions soluble in 0.5% Triton-X-100; the pellets (Triton-X-100-insoluble fractions) were resuspended in 1% SDS in PBS.
Protein concentrations of the supernatants of the total lysates or soluble fractions were measured using Bio-Rad Protein Assay (Bio-Rad Laboratories, Inc., Hercules, Calif.). Equal amounts of protein were run on SDS-PAGE gels (Invitrogen) followed by electro-transfer onto nitrocellulose membranes (Invitrogen). […]

[7] = test system: GAA−/− mice; experiment: LAMP-1/LC3 immunostaining of single fast (psoas) fibers after ERT, GAA−/− mice; assay type: in vivo, mouse; details: ERT-treated
Method: (§3) White gastrocnemius, soleus, and psoas muscles were removed immediately after sacrifice and pinned to Sylgaard-coated dishes for fixation with 2% paraformaldehyde in 0.1M phosphate buffer for 1 h, followed by fixation in methanol (−20° C.) for 6 min. Single fibers were obtained by manual teasing. Fibers were placed in a 24-well plate in Blocking Reagent (Vector Laboratories, Burlingame, Calif.) for 1 h. The fibers were then permeabilized, incubated with primary antibody overnight at 4° C., washed, incubated with secondary antibody for 2 h, washed again, and mounted in Vectashield (Vector Laboratories, Burlingame, Calif.) on a glass slide. The fibers were analyzed using a Zeiss 510 META confocal microscope. The white part of gastrocnemius and psoas muscles in mice are a good source of glycolytic fast-twitch type II fibers (referred to as fast fibers), whereas soleus muscle is a good source of oxidative slow-twitch type I fibers (referred to as slow fibers). At least three animals from each genotype were used to obtain single muscle fibers for immunostaining. For each immunostaining and for confocal analysis, at least 20 fibers were isolated from each of the three muscle groups. […]

[8] = test system: HSAcre: Atg5F/F: GAA−/− mice; experiment: Effect of ERT on ubiquitinated (Ub) proteins in fast muscle of HSAcre:Atg5F/F:GAA−/− mice (FK2 immunoblot, immunostaining); assay type: in vivo, mouse; details: ERT-treated vs untreated
Method: as §3
Protein concentrations of the supernatants of the total lysates or soluble fractions were measured using Bio-Rad Protein Assay (Bio-Rad Laboratories, Inc., Hercules, Calif.). […]

[9] = test system: MLCcre: Atg7F/F: GAA−/− mice; experiment: LAMP-1/LC3 immunostaining of single fast (psoas) fibers after ERT, MLCcre:Atg7F/F:GAA−/− mice; assay type: in vivo, mouse; details: ERT-treated
Method: as §3

[10] = test system: GAA−/− mice; experiment: Effect of ERT on glycogen levels in GAA−/− mice (biochemical glycogen measurement, PAS staining); assay type: in vivo, mouse; details: for Treated vs. Untreated GAA−/− % Reduction / Glycogen level, Treated / Excess Glycogen: GAA−/−; for Glycogen level, Treated: rhGAA 100 mg/kg i.v., three injections every other week; for Excess Glycogen: treated value minus wild type level
Method: as §1, §2

[11] = test system: MLCcre: Atg7F/F: GAA−/− mice; experiment: Effect of ERT on glycogen levels in MLCcre:Atg7F/F:GAA−/− mice (biochemical glycogen measurement, PAS staining); assay type: in vivo, mouse; details: for Glycogen level after ERT (in words): MLCcre:Atg7F/F:GAA−/− mice, fast muscle; for Glycogen level, Treated: rhGAA 100 mg/kg i.v., three injections every other week; for Excess Glycogen: treated value minus wild type level
Method: as §1, §2

[12] = test system: genetically engineered mice that lack expression of GAA; details: mice lacking GAA; cited from earlier work

Compound: Cn1cnc(N)c2ncnc1-2 [3-MA, 3-Methyladenine]
- Inhibition of autophagy in the injected muscle [1]: did not inhibit autophagy effectively
- Highest possible safety dose ([2]; 40 l per TA (so in the source), intramuscular): 5 mg/mL
- Toxicity / tolerability ([2]; mouse, in vivo, ip): no toxicity was observed
- ip LD50 dose [3]: 280 mg/kg

Compound: ERT: recombinant human α-glucosidase (rhGAA; Myozyme®, Genzyme Corporation) given intravenously as enzyme replacement therapy
- Glycogen clearance from skeletal muscle [4]: less effective for glycogen clearance from skeletal muscle
- Glycogen clearance in cardiac muscle [4]: effective for glycogen clearance in cardiac muscle
- Glycogen level after ERT (in words) ([5]; HSAcre:Atg5F/F:GAA−/− mice, fast muscle): reduction of glycogen levels to normal or near normal levels; also recorded: complete removal of the accumulated glycogen
- Treated vs. Untreated GAA−/− % Reduction ([5]; HSAcre:Atg5F/F:GAA−/−, Gastroc): 94%
- Glycogen level, Treated ([5]; HSAcre:Atg5F/F:GAA−/−, Gastroc): 4.1 ± 4.9 μg glucose/hr/mg protein
- Excess Glycogen ([5]; HSAcre:Atg5F/F:GAA−/−, Gastroc): 0 μg glucose/hr/mg protein
- Treated vs. Untreated GAA−/− % Reduction ([5]; HSAcre:Atg5F/F:GAA−/−, Heart): 100%
- Glycogen level, Treated ([5]; HSAcre:Atg5F/F:GAA−/−, Heart): 0.0 ± 0.0 μg glucose/hr/mg protein
- Excess Glycogen ([5]; HSAcre:Atg5F/F:GAA−/−, Heart): 0 μg glucose/hr/mg protein
- Treated vs. Untreated GAA−/− % Reduction ([5]; HSAcre:Atg5F/F:GAA−/−, Quad): 94%
- Glycogen level, Treated ([5]; HSAcre:Atg5F/F:GAA−/−, Quad): 5.0 ± 4.9 μg glucose/hr/mg protein
- Excess Glycogen ([5]; HSAcre:Atg5F/F:GAA−/−, Quad): 0.6 μg glucose/hr/mg protein
- Glycogen clearance, PAS-stained sections ([5]; HSAcre:Atg5F/F:GAA−/−, fast (gastrocnemius) muscle, 4 month-old): near complete glycogen clearance
- Amount of ubiquitinated (Ub) proteins, FK2 immunoblot [6]: No difference in the amount of the Ub-proteins; also recorded: No reduction of ubiquitinated-proteins
- Autophagic buildup (LC3 immunostaining) [7]: this buildup persists in ERT-treated GAA−/− mice
- Lysosomal size (LAMP-1 immunostaining) [7]: even larger than those in the untreated fiber
- Ub-proteins, FK2 immunostaining of single fast (psoas) myofibers [8]: clearly observed in untreated, but not in ERT-treated myofibers
- Amount of ubiquitinated (Ub) proteins, FK2 immunoblot ([8]; gastrocnemius, soluble and non-soluble fractions): A significant drop in the amount of Ub-proteins; also recorded: significant decrease in the amount of ubiquitinated-proteins
- Expanded lysosomes (LAMP-1 immunostaining) [9]: reduce in size and appear normal
- Glycogen clearance after ERT (in words) ([10]; GAA−/− mice with genetically intact autophagy, skeletal muscle): cleared glycogen poorly
- Treated vs. Untreated GAA−/− % Reduction ([10]; Gastroc): 27%
- Glycogen level, Treated ([10]; Gastroc): 52.5 ± 22.7 μg glucose/hr/mg protein
- Excess Glycogen ([10]; Gastroc): 48.1 μg glucose/hr/mg protein
- Treated vs. Untreated GAA−/− % Reduction ([10]; Heart): 100%
- Glycogen level, Treated ([10]; Heart): 0.6 ± 1.2 μg glucose/hr/mg protein
- Excess Glycogen ([10]; Heart): 0 μg glucose/hr/mg protein
- Treated vs. Untreated GAA−/− % Reduction ([10]; Quad): 28%
- Glycogen level, Treated ([10]; Quad): 54.5 ± 29.6 μg glucose/hr/mg protein
- Excess Glycogen ([10]; Quad): 50.1 μg glucose/hr/mg protein
- Glycogen level after ERT (in words) [11]: reduction of glycogen levels to normal or near normal levels
- Glycogen level after ERT (in words) ([11]; listed as recombinant enzyme): dramatic reduction in the glycogen level approaching wild type levels
- Treated vs. Untreated GAA−/− % Reduction ([11]; MLCcre:Atg7F/F:GAA−/−, Gastroc): 88%
- Glycogen level, Treated ([11]; MLCcre:Atg7F/F:GAA−/−, Gastroc): 8.6 ± 8.9 μg glucose/hr/mg protein
- Excess Glycogen ([11]; MLCcre:Atg7F/F:GAA−/−, Gastroc): 4.2 μg glucose/hr/mg protein
- Treated vs. Untreated GAA−/− % Reduction ([11]; MLCcre:Atg7F/F:GAA−/−, Heart): 100%
- Glycogen level, Treated ([11]; MLCcre:Atg7F/F:GAA−/−, Heart): 0.2 ± 0.4 μg glucose/hr/mg protein
- Excess Glycogen ([11]; MLCcre:Atg7F/F:GAA−/−, Heart): 0 μg glucose/hr/mg protein
- Treated vs. Untreated GAA−/− % Reduction ([11]; MLCcre:Atg7F/F:GAA−/−, Quad): 82%
- Glycogen level, Treated ([11]; MLCcre:Atg7F/F:GAA−/−, Quad): 13.7 ± 10 μg glucose/hr/mg protein
- Excess Glycogen ([11]; MLCcre:Atg7F/F:GAA−/−, Quad): 9.3 μg glucose/hr/mg protein
- Glycogen clearance, PAS-stained sections ([11]; MLCcre:Atg7F/F:GAA−/−, fast (gastrocnemius) muscle, 4 month-old): near complete glycogen clearance
- Glycogen clearance from type I muscle fibers [12]: effective in clearing gylcogen from type I muscle fibers
- Glycogen clearance from type II muscle fibers [12]: not type II muscle fibers
